Measured values: patent publication US20210137945A1, “METHOD FOR TREATING A CANCER ASSOCIATED WITH THE ACTIVATION OF GALECTIN-1” (TRINEO BIOTECHNOLOGY CO. LTD, priority 2019, published 2021)
pIC50: −log10 of the molar value.

How the values were obtained:
Type in all cases: cell-based
myeloma ARH-77 cells = assay: MTT assay of myeloma ARH-77 cells treated with chemotherapeutic drugs alone or combined; conditions: for pIC50: ARH-77 cells, chemotherapeutic agent alone (control)
Procedure: (§1) Ovarian cancer cell ES-2 and myeloma cell line ARH-77 were used in the present disclosure. Cells was cultured and maintained in Dulbecco's modified Eagle media (DMEM) supplemented with 10% fetal bovine serum (FBS), 100 IU/ml penicillin, […] streptomycin, 2 mM glutamine, non-essential amino acids and sodium pyruvate in 5% CO2 at 37° C. Cells were grown and maintained in Petri dishes (each was 10 cm in diameter) until they reached 80% confluence, and then were subject to cell passages. Briefly, cells were first washed with phosphate buffer solution (PBS, 3 ml) once, then treated with 0.05% Trypsin/0.025% EDTA solution (1 mL) for 5 min so that the attached cells become suspended. The suspended cells were harvested and 2 mL fresh culture media were added therein to neutralize any remaining activity of trypsin. Cell density was adjusted by adding appropriate amounts of culture medium to the cell suspension, which was then used to seed the culture plates. The plates were then returned to the incubator, and cultured in accordance with the steps described above.
Cells were seeded in 96-well plates with a density of 3,000 cells/well and cultured in accordance with the procedures described above. On the day when cell activity analysis was to be conducted, cells were first treated with various concentrations of the triterpenoids of the present disclosure, imatinib or gefitinib for at least 48 hrs, before subjecting them to MTT assay.
(§2) 50 μL of the MTT stock solution (5 mg MTT dissolved in 1 ml of sterile PBS) was added to each well, and 50 μL of the MTT stock solution was added to 500 μL of medium alone and used as a negative control. Each sample was incubated at 37° C. for 4 hours. Aliquots (450 μl) from each sample were taken to a new well of 48-well culture plate, adding […], DMSO, mixing thoroughly using the pipette and reacted at 37° C. for 20 min and absorbance was measured at 570 nm.
Results are summarized in Tables 1 to 3, and FIGS. 3 and 4.
If no significance existed between the expected and observed values, the effect is termed“additivity (p>0.05)”. […] The expected value was determined by multiplying the survival rate of each drug in specific dose. The obtained value and value of each survival rate were measured by MMT assay (FIG. 3 and FIG. 4).

[1] = tested on: ovarian cancer cells (i.e., ES-2 cells); assay: MTT assay of cell activity, ES-2 cells; conditions: treated at least 48 hrs
Procedure: as §1, with “The suspended cells were harvested and 2 mL fresh culture media were added therein to neutralize any remaining activity of trypsin. Cell density was adjusted by adding appropriate amounts of culture medium to the cell suspension, which was then used to seed the culture plates. The plates were then returned to the incubator, and cultured in accordance with the steps described above.” left out
as §2, with “Each sample was incubated at 37° C. for 4 hours.” left out
The effects of the TN-GL-01 composition of example 1.1 on ovarian cancer cells (i.e., ES-2 cells) were evaluated by MTT assay in accordance with procedures described in the “Material and Methods” section.

galectin-1 = assay: Western blot analysis of galectin-1 expression in ES-2 cells; conditions: western blot (FIG. 2)
Procedure: Samples were respectively subjected to SDS-PAGE, transferred to PVDF membranes. These blots were blocked with 5% nonfat milk powder in TBS-0.1% Tween-20 for 30 minutes, followed by incubation with primary antibodies at 4° C. overnight and then horseradish peroxidase-conjugated secondary antibodies (Amersham Biosciences, Piscataway). Imaging of bands was performed using Pierce ECL Western Blotting Substrate (Thermo Fisher Scientific) and ImageQuant LAS-4000 (GE Healthcare).
In this example, the effects of TN-GL-01 composition on the expression of galectin-1 in ERK (extracellular-signal-regulated kinase) pathway was investigated via western blot analysis. […] Thus, it was concluded that the present TN-GL-01 composition exerted its function through suppression of galectin-1.

N.N.[Cl][Pt][Cl] [Cisplatin, cisplatin]
Cell survival rate of the single drug (myeloma ARH-77 cells; ARH-77, Table 2, Cisplatin 3 μM alone): 0.65 | Cell survival rate of the single drug (myeloma ARH-77 cells; ARH-77, Table 3, Cisplatin 3 μM alone): 0.69

COc1cccc2c1C(=O)c1c(O)c3c(c(O)c1C2=O)C[C@@](O)(C(=O)CO)C[C@@H]3O[C@H]1C[C@H](N)[C@H](O)[C@H](C)O1 [Doxorubicin, doxorubicin]
Cell survival rate of the single drug (myeloma ARH-77 cells; ARH-77, Table 2, Doxorubicin 100 nM alone): 0.58 | Cell survival rate of the single drug (myeloma ARH-77 cells; ARH-77, Table 3, Doxorubicin 250 nM alone): 0.66 | Cell survival rate of the single drug (myeloma ARH-77 cells; ARH-77, Table 3, Doxorubicin 500 nM alone): 0.66 | pIC50 (myeloma ARH-77 cells; Homo sapiens): 7.00

COc1cc([C@@H]2c3cc4c(cc3[C@@H](O[C@@H]3O[C@@H]5CO[C@@H](C)O[C@H]5[C@H](O)[C@H]3O)[C@H]3COC(=O)[C@H]23)OCO4)cc(OC)c1O [Etoposide, etoposide]
pIC50 (myeloma ARH-77 cells): 6.38

C/C(=C/CC[C@@H](C)[C@H]1CC[C@@]2(C)C3=CC[C@H]4C(C)(C)C(=O)CC[C@]4(C)C3=CC[C@]12C)C(=O)O [GAS, ganoderic acid S]
50% inhibition of ES-2 cells (IC50) [1]: 58.3 µg/mL | expression of galectin-1 (galectin-1): effective in suppressing the expression of galectin-1

CC(=O)O[C@@H](C/C=C(\C)C(=O)O)[C@@H](C)[C@H]1C[C@H](OC(C)=O)[C@@]2(C)C3=CC[C@H]4C(C)(C)[C@H](OC(C)=O)CC[C@]4(C)C3=CC[C@]12C [GAT, ganoderic acid T]
50% inhibition of ES-2 cells (IC50) [1]: 24.5 µg/mL | expression of galectin-1 (galectin-1): effective in suppressing the expression of galectin-1

CC(=O)O[C@H]1C(=O)[C@@]2(C)[C@H]([C@H](OC(=O)c3ccccc3)[C@]3(O)C[C@H](OC(=O)[C@H](O)[C@@H](NC(=O)c4ccccc4)c4ccccc4)C(C)=C1C3(C)C)[C@]1(OC(C)=O)CO[C@@H]1C[C@@H]2O [Paclitaxel, paclitaxel]
Cell survival rate of the single drug (myeloma ARH-77 cells; ARH-77, Table 2, Paclitaxel 62.5 nM alone): 0.68 | Cell survival rate of the single drug (myeloma ARH-77 cells; ARH-77, Table 2, Paclitaxel 125 nM alone): 0.50 | Cell survival rate of the single drug (myeloma ARH-77 cells; ARH-77, Table 3, Paclitaxel 40 μM alone): 0.65
